Assay results: patent publication US20160100579A1, “NEMATICIDAL N-(2-SUBSTITUTED 2-PHENYLETHYL)CARBOXAMIDES AND N-(2-SUBSTITUTED 2-PHENYLETHYL)-THIOCARBOXAMIDES” (priority 2013, published 2016)

What was measured:
[1] = Measurement of log P values by HPLC on reversed phase columns (EEC directive 79/831 Annex V.A8; methods [a] pH 2.3, [b] pH 2.7, [c] pH 7.8); type: physicochemical; conditions: for logP: method [b]: LC-MS, pH 2.7, 0.1% formic acid in water / acetonitrile
Meloidogyne incognita = Meloidogyne incognita - test (MELGIN); type: in vivo; conditions: 20 ppm; salad seedlings in sand; after 14 days; 100% = no galls found
Experimental: Meloidogyne incognita—test (MELGIN)
Solvent: 125.0 parts by weight of acetone
To produce a suitable preparation of active compound, 1 part by weight of active compound is mixed with the stated amount of solvent, and the concentrate is diluted with water to the desired concentration.
Vessels are filled with sand, a solution of the active ingredient, a suspension containing eggs and larvae of the southern root-knot nematode (Meloidogyne incognita) and salad seeds. The salad seeds germinate and the seedlings grow. Galls develop in the roots.
After 14 days the nematicidal activity is determined on the basis of the percentage of gall formation. 100% means that no galls were found; 0% means the number of galls found on the roots of the treated plants was equal to that in untreated control plants.

Cooperia curticei = type: in vivo; conditions: 20 ppm; after 5 days; 100% = all larvae killed
Experimental: Cooperia curticei—Test (COOPCU)
(§1) Solvent: dimethyl sulfoxide
(§2) To produce a suitable preparation of active compound, 10 mg of active compound are dissolved in 0.5 ml solvent, and the concentrate is diluted with “Ringer's solution” to the desired concentration.
Approximately 40 nematode larvae (Cooperia curticei) are transferred into a test tube containing the compound solution.
After 5 days percentage of larval mortality is recorded. 100% efficacy means all larvae are killed; 0% efficacy means no larvae are killed.

Haemonchus contortus = Haemonchus contortus - Test (HAEMCO); type: in vivo; conditions: 20 ppm; after 5 days; 100% = all larvae killed
Experimental: Haemonchus contortus—Test (HAEMCO)
as §1, §2
Approximately 40 larvae of the red stomach worm (Haemonchus contortus) are transferred into a test tube containing compound solution.
After 5 days percentage of larval mortality is recorded. 100% efficacy means all larvae are killed, 0% efficacy means no larvae are killed.

Boophilus microplus = Boophilus microplus - Injectiontest (BOOPMI Inj); type: in vivo; conditions: 20 μg/animal injected into adult engorged female ticks; after 7 days; 100% = all eggs infertile
Experimental: Boophilus microplus—Injectiontest (BOOPMI Inj)
as §1
To produce a suitable preparation of active compound, 10 mg of active compound are dissolved in 0.5 ml solvent, and the concentrate is diluted with solvent to the desired concentration.
Five adult engorged female ticks (Boophilus microplus) are injected with 1 μl compound solution into the abdomen. Ticks are transferred into replica plates and incubated in a climate chamber.
After 7 days the egg deposition of fertile eggs is monitored. Eggs where fertility is not visible are stored in a climate chamber till hatching after about 42 days. An efficacy of 100% means all eggs are infertile; 0% means all eggs are fertile.

[2] = method [b]: LC-MS at pH 2.7, 0.1% formic acid in water / acetonitrile
[3] = method [c]: LC-MS at pH 7.8, 0.001 molar ammonium hydrogen carbonate in water / acetonitrile

| SMILES | logP [1] | nematicidal activity (percentage of gall formation) (Meloidogyne incognita) [%] | activity (efficacy: larval mortality) (Cooperia curticei) [%] | activity (efficacy: larval mortality) (Haemonchus contortus) [%] | log P [1, 2] | log P [1, 3] | activity (efficacy: egg deposition of fertile eggs) (Boophilus microplus) [%] |
| --- | --- | --- | --- | --- | --- | --- | --- |
| CCC(NC(=O)c1nccnc1C(F)(F)F)C(OC)c1ccc(Cl)cc1Cl (stereo not drawn) [Compound 92] | 3.99^[b] | 90 | 90 |  |  |  |  |
| CCOC(c1ccc(Cl)cc1Cl)C(C)NC(=O)c1nccnc1C(F)(F)F (stereo not drawn) [Compound 107] | 4.16^[b] | 100 | 100 |  |  |  |  |
| CCOC(c1ccc(Cl)cc1Cl)C(C)NC(=O)c1ccccc1[N+](=O)[O-] (stereo not drawn) [Compound 202] |  | 90 | 100 | 80 | 3.83^[b] | 3.80^[c]; |  |
| COC(c1ccccc1Cl)C(C)NC(=O)c1nccnc1C(F)(F)F (stereo not drawn) [Compound 208] |  | 90 | 80 |  | 3.11^[b] | 3.10^[c]; |  |
| COC(c1ccccc1Cl)C(C)NC(=O)c1ccsc1I (stereo not drawn) [Compound 203] |  |  | 80 | 80 | 3.53^[b] | 3.53^[c]; |  |
| COC(c1ccc(Cl)cc1Cl)C(C)NC(=O)c1nccnc1C(F)(F)F (stereo not drawn) [Compound 73] |  | 100 | 90 | 100 |  |  |  |
| COC(c1ccc(Cl)cc1)C(C)NC(=O)c1ccccc1C(F)(F)F (stereo not drawn) [Compound 128] |  |  | 80 | 90 | 3.45^[b] | 3.35^[c]; |  |
| COC(CNC(=O)c1nccnc1C(F)(F)F)c1ccc(Cl)cc1Cl (stereo not drawn) [Compound 103] | 3.35^[b] | 90 | 90 |  |  |  | 80 |
